Patent US7504537B2, “Hydroxamic acid derivative and MMP inhibitor containing the same as active ingredient” (Dainippon Sumitomo Pharma Co., Ltd., priority 2001, dated 2009)

How the values were obtained:
[1] = biological target: T1, MMP-1 (Homo sapiens, UniProt P03956); assay: Test 6 MMP-1 inhibition activity test; format: biochemical; conditions: MMP-1 from human rheumatic synovium fibroblast, activated with AMPA
T1 construct: calbiochem cat; purchased calbiochem 444208; host or cells: human rheumatic synovium fibroblast
T1 sequence (P03956 100-469): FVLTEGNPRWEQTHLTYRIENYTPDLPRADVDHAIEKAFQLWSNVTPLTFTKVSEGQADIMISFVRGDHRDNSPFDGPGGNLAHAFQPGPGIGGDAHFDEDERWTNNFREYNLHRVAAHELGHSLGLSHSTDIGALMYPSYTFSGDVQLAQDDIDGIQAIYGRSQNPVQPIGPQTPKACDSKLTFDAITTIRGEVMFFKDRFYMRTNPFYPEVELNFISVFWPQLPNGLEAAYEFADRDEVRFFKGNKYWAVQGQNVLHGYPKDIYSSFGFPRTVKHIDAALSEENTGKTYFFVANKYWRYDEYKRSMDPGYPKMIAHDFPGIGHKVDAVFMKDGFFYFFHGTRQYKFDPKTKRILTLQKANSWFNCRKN
Method: Test 6 MMP-1 Inhibition Activity Test
MMP-1 (stroma collagenase: EC3.4.24.7, human rheumatic synovium fibroblast, calbiochem cat. 444208) was activated with AMPA at 37° C. for 60 minutes. A test compound was preincubated with activated MMP-1 at 37° C. for 60 minutes in the reaction mixture containing 50 mM MOPS (pH 7.2), 10 mM aqueous calcium chloride solution, and 10 μM zinc chloride. Thereto was added 25 μM Mca-Pro-Leu-Dpa-Ala-Arg-NH2, and the mixture was incubated at 37° C. for 120 minutes. The enzyme activity was measured by fluorescence intensity of Mca-Pro-Leu-Gly, and IC50 was calculated.

[2] = test system: Adjuvant Arthritis; assay: Test 7 Adjuvant arthritis (in vivo); set-up: species or system rat; conditions: Lewis male rats, 50 mg/kg per os once a day for twelve days
From the text: Test 7 Adjuvant Arthritis (in vivo) For this test Lewis male rats were used. The suspension prepared by suspending Mycobacterium butyricum in liquid paraffin in concentration of 0.5% was subcutaneously injected in a right hind paw. Ten days later the rats in which the definite secondary inflammation on a left hind paw was observed were selected, and to the rats the compound (Example 2) suspended in 0.5% methyl cellulose was orally administered for twelve successive days once a day. Five hours later after finishing administration the volume of the hind paws was compared with the volume when the administration was initiated, and the inhibition activity of edema was evaluated based on this difference.

[3] = test system: degeneration of cartilage; assay: Test 8 Rat meniscectomy model test (in vivo); conditions: male SD (IGS) rats, 50 mg/kg orally once a day for 3 weeks; injured group = 100%
Method: Test 8 Rat Meniscectomy Model Test (in vivo)
For this test male rats (6 weeks old SD (IGS)) were used. A meniscus of joint of a right hind limb was partially removed. Compound of Example 2 was orally administered for 3 weeks once a day in the amount of 50 mg/kg. The tissue speciman of the joint was prepared, and stained with safranin O/first green, and the degeneration of cartilage was evaluated. The degree of the degeneration of cartilage in the test compound group was calculated as 100% of the degree of that in the injured group. Cartilage degeneration rate was 33% (*; p<0.05, Steel-test)

Question: `CC(C)CN(C1(C(=O)NO)CCCC1)S(=O)(=O)c1ccc(Oc2ccc(S(C)(=O)=O)cc2)cc1` [Example 2, N-hydroxy 1-[isobutyl({4-[4-(methylsulfonyl)phenoxy]phenyl}sulfonyl)amino]cyclopentanecarboxamide] was tested. Which IC50 [1] did it give?
Answer: The IC50 was 7.21 µM.

Question: And the “Increase of edema, Non injected limb” value ([2]; control 1.07 ± 0.31)?
Answer: The value was 0.74 ± 0.16 mL.

Question: And the “Increase of edema, Injected limb” value ([2]; control −0.24 ± 0.45)?
Answer: The value was -1.06 ± 0.47 mL.

Question: What about the Cartilage degeneration rate [3] of the same molecule?
Answer: Its Cartilage degeneration rate is 33%.

Question: How did the IC50 [1] turn out when `CCOC(=O)CN(CC(=O)NO)S(=O)(=O)c1ccc(Oc2ccc(S(C)(=O)=O)cc2)cc1` [Example 22, Ethyl N-{[(hydroxyamino)carbonyl]methyl}-N-({4-[4-(methylsulfonyl)phenoxy]phenyl}sulfonyl)-glycinate] was run?
Answer: The IC50 was over 10 µM.

Question: How did the IC50 [1] turn out when `CCOC(=O)CN(C1(C(=O)NO)CCCC1)S(=O)(=O)c1ccc(Oc2ccc(S(C)(=O)=O)cc2)cc1` [Example 23, Ethyl N-{1-[(hydroxyamino)carbonyl]cyclopentyl}-N-({4-[4-(methylsulfonyl)phenoxy]phenyl}sulfonyl)glycinate] was run?
Answer: Its IC50 is over 10 µM.

Question: Which IC50 [1] does the source give for `CC(C)CN(C1(C(=O)NO)CCC1)S(=O)(=O)c1ccc(Oc2ccc(S(C)(=O)=O)cc2)cc1` [Example 18, N-Hydroxy-1-[isobutyl({4-[4-(methylsulfonyl)phenoxy]phenyl}sulfonyl)amino]cyclobutanecarboxamide] here?
Answer: Its IC50 is 3.3 µM.

Question: Which IC50 [1] does the source give for `CCOC(=O)CCN(C1(C(=O)NO)CCCC1)S(=O)(=O)c1ccc(Oc2ccc(S(C)(=O)=O)cc2)cc1` [Example 26, Ethyl N-{1-[(hydroxyamino)carbonyl]cyclopentyl}-N-({4-[4-(methylsulfonyl)phenoxy]phenyl}sulfonyl)-β-alaninate] here?
Answer: The IC50 was 3.9 µM.

Question: `CS(=O)(=O)c1ccc(Oc2ccc(S(=O)(=O)N(Cc3ccccc3)C3(C(=O)NO)CCOCC3)cc2)cc1` [Example 12, 4-[Benzyl({4-[4-(methylsulfonyl)phenoxy]phenyl}sulfonyl)amino]-N-hydroxytetrahydoro-2H-pyrane-4-carboxamide] was tested. Which IC50 [1] did it give?
Answer: The IC50 was over 10 µM.

Question: How did the IC50 [1] turn out when `CS(=O)(=O)c1ccc(Oc2ccc(S(=O)(=O)NCC(=O)NO)cc2)cc1` [Example 13, N′^1′-Hydroxy-N′^2′-({4-[4-(methylsulfonyl)phenoxy]phenyl}sulfonyl)glycinamide] was run?
Answer: Its IC50 is over 10 µM.

Question: How did the IC50 [1] turn out when `CS(=O)(=O)c1ccc(Oc2ccc(S(=O)(=O)N(CC(=O)NO)Cc3ccncc3)cc2)cc1` [Example 42, N′^1′-Hydroxy-N′^2′-({4-[4-(methylsulfonyl)phenoxy]phenyl}sulfonyl)-N′^2′-(4-pyridinylmethyl)glycinamide] was run?
Answer: The IC50 was over 10 µM.

Question: For `CCOCCN(C1(C(=O)NO)CCCC1)S(=O)(=O)c1ccc(Oc2ccc(S(C)(=O)=O)cc2)cc1` [Example 45, 1-[(2-Ethoxyethyl)({4-[4-(methylsulfonyl)phenoxy]phenyl}sulfonyl)amino]-N-hydroxycyclopentanecarboxamide], which IC50 [1] is on record?
Answer: Its IC50 is 4.96 µM.
